The values below come from patent publication US20140171520A1, “HIGHLY SOLUBLE STEVIA SWEETENER” (priority 2011, published 2014).

Where two headings read alike, the source gives them in different places. A value given as a limit tells only on which side of the number the result lay.

Data set [1] is described as follows: Solubility in reverse osmosis (RO) water at room temperature. The data set is classed as physicochemical. As to conditions: g per 100 g solvent. How it is done:
Hereinafter, unless specified otherwise the solubility of material is determined in reverse osmosis (RO) water at room temperature. Where the solubility is expressed as “%” it to be understood as number of grams of material soluble in 100 grams of solvent.

For data set [2] the following is noted: at 50° C.; U.S. patent application Ser. No. 12/612,374; cited from earlier work.
The conditions of data set [3]: cited from earlier work.

For `C=C1C[C@@]23CC[C@H]4[C@@](C)(CCC[C@@]4(C)C(=O)O[C@@H]4O[C@H](CO)[C@@H](O)[C@H](O)[C@H]4O)[C@@H]2CC[C@]1(O[C@@H]1O[C@H](CO)[C@@H](O)[C@H](O[C@@H]2O[C@H](CO)[C@@H](O)[C@H](O)[C@H]2O)[C@H]1O[C@@H]1O[C@H](CO)[C@@H](O)[C@H](O)[C@H]1O)C3` [Reb A, Rebaudioside A], the water solubility in data set [1] is more than 5%; in data set [1] (listed as rebaudioside A), 5.5%.

In turn, Rebaudioside B [Reb B] yielded a water solubility in data set [1] of 0.01%.

`C=C1C[C@@]23CC[C@H]4[C@@](C)(CCC[C@@]4(C)C(=O)O[C@@H]4O[C@H](CO)[C@@H](O)[C@H](O)[C@H]4O[C@@H]4O[C@H](CO)[C@@H](O)[C@H](O)[C@H]4O)[C@@H]2CC[C@]1(O[C@@H]1O[C@H](CO)[C@@H](O)[C@H](O[C@@H]2O[C@H](CO)[C@@H](O)[C@H](O)[C@H]2O)[C@H]1O[C@@H]1O[C@H](CO)[C@@H](O)[C@H](O)[C@H]1O)C3` [anhydrous form of Reb D, Rebaudioside D, reference compound]: the solubility entry in data set [2] is reported as “about 0.15%”.

Take `C=C1C[C@@]23CC[C@H]4[C@@](C)(CCC[C@@]4(C)C(=O)O[C@@H]4O[C@H](CO)[C@@H](O)[C@H](O)[C@H]4O)[C@@H]2CC[C@]1(O[C@@H]1O[C@H](CO)[C@@H](O)[C@H](O[C@@H]2O[C@H](CO)[C@@H](O)[C@H](O)[C@H]2O)[C@H]1O[C@@H]1O[C@H](CO)[C@@H](O)[C@H](O)[C@H]1O)C3` [Form 3, Rebaudioside A]: the “Rate of dissolution in H2O at 25° C.” value in data set [3] (in 5 minutes) is listed as “High (>30%”.

`C=C1C[C@@]23CC[C@H]4[C@@](C)(CCC[C@@]4(C)C(=O)O[C@@H]4O[C@H](CO)[C@@H](O)[C@H](O)[C@H]4O)[C@@H]2CC[C@]1(O[C@@H]1O[C@H](CO)[C@@H](O)[C@H](O[C@@H]2O[C@H](CO)[C@@H](O)[C@H](O)[C@H]2O)[C@H]1O[C@@H]1O[C@H](CO)[C@@H](O)[C@H](O)[C@H]1O)C3` [Form 2, Rebaudioside A]: the “Rate of dissolution in H2O at 25° C.” value in data set [3] (in 5 minutes) is “(<30% in 5”.

On to `C=C1C[C@@]23CC[C@H]4[C@@](C)(CCC[C@@]4(C)C(=O)O[C@@H]4O[C@H](CO)[C@@H](O)[C@H](O)[C@H]4O)[C@@H]2CC[C@]1(O[C@@H]1O[C@H](CO)[C@@H](O)[C@H](O[C@@H]2O[C@H](CO)[C@@H](O)[C@H](O)[C@H]2O)[C@H]1O[C@@H]1O[C@H](CO)[C@@H](O)[C@H](O)[C@H]1O)C3` [Form 4, Rebaudioside A], for which the “Rate of dissolution in H2O at 25° C.” value in data set [3] (in 5 minutes) is “High (>35%”.

Take `C=C1C[C@@]23CC[C@H]4[C@@](C)(CCC[C@@]4(C)C(=O)O[C@@H]4O[C@H](CO)[C@@H](O)[C@H](O)[C@H]4O)[C@@H]2CC[C@]1(O[C@@H]1O[C@H](CO)[C@@H](O)[C@H](O[C@@H]2O[C@H](CO)[C@@H](O)[C@H](O)[C@H]2O)[C@H]1O[C@@H]1O[C@H](CO)[C@@H](O)[C@H](O)[C@H]1O)C3` [Form 1, Rebaudioside A]: in data set [3] (Prakash et al. 2008), the “solubility among Reb A polymorph forms” value is “lowest solubility”. For the same compound, in data set [3] (in 60 minutes), the “Rate of dissolution in H2O at 25° C.” value is listed as “(<0.2% in”.
